The record followed here is patent publication US8906953B2, “Pyrrolidine substitute flavones for the treatment of inflammatory disorders” (Piramal Enterprises Limited, priority 2010, dated 2014).

Structures are written as SMILES.

One experiment relates to IκBα. As to the kind of experiment: TNFα-induced IκBα phosphorylation and degradation, western blot in Jurkat cells. It counts as cell-based, human. To be noted: 0.1 μM, 0.1 nM TNF-α 0-90 minutes. The procedure: The method for IκBα degradation was designed as in reference, The Journal of Immunology, 1999, 103, 6800-6809, the disclosure of which is also incorporated by reference for the teaching of the assay.
Human Jurkat T-cells from American Type Culture Collection (ATCC) were cultivated in Rosewell Park Memorial Institute (RPMI) medium supplemented with 10% fetal bovine serum (FBS), penicillin (100 U/mL) and streptomycin (100 μg/mL) at 37° C. in humidified atmosphere of 95% air-5% CO2. Culture medium was changed every 2-3 days and always 24 hours before harvest. RPMI medium, FBS, CellLytic, anti-β-actin, sodium orthovanadate and anisomycin were purchased from Sigma-Aldrich (USA). TNF-α was purchased from R & D Systems (USA). Complete Protease inhibitor cocktail was procured from Roche.
Jurkat cells were preincubated with vehicle or the compound of example 3 (0.1 μM) for 1 hour in a 37° C., CO2 incubator. For MAPK experiments, the cells were stimulated with anisomycin (10 μg/mL) for 30 minutes. SB 203580 was used as a standard (1 μM). For studies pertaining to degradation of IκBα and IκBα (phospho) the cells were stimulated with 0.1 nM TNF-α for 0, 5, 15, 30, 60 and 90 minutes. […] Aliquots of the resulting extracts were analyzed for their protein content using the Coomassie Plus Protein Assay Reagent (Pierce) following manufacturer's instructions. […]

Another experiment concerns TNF-α. As to the kind of experiment: LPS-induced TNF-α release in Balb/c mice. It counts as in vivo. Conditions: Mus musculus, plasma 1.5 hours post LPS (1 mg/kg i.p.). Here is the method:
The assay was designed as in reference, J. Med. Bio. Res., 1997, 30, 1199-1207, the disclosure of which is incorporated herein by reference for the teaching of the assay. […] All suspensions were freshly prepared in 0.5% CMC. One hour later, LPS (1 mg/kg) (Escherchia coli, serotype 0127:B8, Sigma Chemical Co., St. Louis, Mo.) dissolved in sterile pyrogen-free saline was administered intra-peritoneally to the control group, standard treatment group (Rolipram, 30 mg/kg, p.o.) and test groups (compound of example 3), except the negative control group, which received normal saline. Blood samples were collected from anesthetized mice, with heparin as an anti-coagulant (25 IU per sample) 1.5 hours post LPS challenge. […] Percent inhibition of TNF-α release was calculated by comparing the TNF-α levels of the treatment groups with those of the control group.

A further experiment has as its system IL-6. As to the kind of experiment: LPS-induced IL-6 release from hPBMCs (ELISA). It counts as cell-based. Conditions: Homo sapiens. The procedure: Cytokine production by lipopolysaccharides (LPS) in hPBMCs (human peripheral blood mononuclear cells) was measured as in reference, Physiol. Res. 2003, 52, 593-598, the disclosure of which is incorporated by reference for the teaching of the assay. Blood was collected from healthy donors into Potassium EDTA vacutainer tubes (BID vacutainer). The PBMC were isolated using gradient centrifugation in Histopaque-1077 solution (Sigma). Isolated PBMC were suspended in RPMI 1640 (Rosewell Park Memorial Institute) culture medium (Sigma-Aldrich Fine Chemicals, USA) containing 10% fetal bovine serum (FBS) (JRH, USA), 100 U/mL penicillin (Sigma Chemical Co. St Louis, Mo., USA) and 100 μg/mL streptomycin (Sigma Chemical Co. St Louis, Mo.). The cell concentration was adjusted to 1×10^6 cells/mL. The viability as determined by trypan blue dye exclusion was uniform Ly≧98%. The cell suspension (100 μL) was added to the wells of a 96-well culture plate. Following cell plating, 79 μL of the culture medium and 1 μL of various concentrations of test compounds (compounds of formula 1) (final concentration 0.001, 0.003, 0.005, 0.01, 0.025, 0.03, 0.05, 0.1, 0.25, 0.3 and 1 μM) dissolved in DMSO (dimethyl sulfoxide, Sigma, Mo., USA) were added to the cells. The final concentration of DMSO was adjusted to 0.5%. The vehicle (0.5% DMSO) was used as control. […]

The inhibition is the drop in the measured response relative to a control, in per cent. As usually defined, the IC50 is the concentration that inhibits the measured activity by half. A higher IC50 goes with weaker potency. Regarding `CN1CC[C@@H](c2c(O)cc(O)c3c(=O)cc(-c4ccc(C(F)(F)F)cc4Cl)oc23)[C@@H]1CO.Cl` [Compound of example 3, (+)-trans-2-(2-Chloro-4-trifluoromethyl-phenyl)-5,7-dihydroxy-8-(2-hydroxymethyl-1-methyl-pyrrolidin-3-yl)-chromen-4-one hydrochloride], the “TNFα-induced IkBα phosphorylation and degradation (western blot)” value in the experiment on IκBα is “blocks TNFα-induced IkBα phosphorylation and degradation”. Moreover, at 12.5 mg/kg the inhibition in the experiment on TNF-α (12.5 mg/kg oral) was 53.2 ± 12.5%. The compound further registered an inhibition at 25 mg/kg in the experiment with TNF-α (25 mg/kg oral) of 66.8 ± 11.5%. Further, the inhibition at 50 mg/kg in the experiment on TNF-α (50 mg/kg oral) worked out at 82 ± 4.88%. In the experiment with TNF-α (75 mg/kg oral), this compound had an inhibition at 75 mg/kg of 77.3 ± 8.61%. The compound also showed an inhibition at 100 mg/kg in the experiment on TNF-α (100 mg/kg oral) of 92.6 ± 3.5%. The same compound showed a half-maximal inhibitory concentration (IC50) with IL-6 of 100 nM.
